Laboratory results taken from the supplement of paper PMC6045584.
± gives the standard deviation of the averaged measurements.

Key:
ERLOTINIB = compound: C#Cc1cccc(Nc2ncnc3cc(OCCOC)c(OCCOC)cc23)c1 [ERLOTINIB]; assay: surviving fraction relative to DMSO-only wells; higher = less growth inhibition; conditions: exposure time: 5 days
Procedure, shortened: (§1)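 Continuous five-day exposure to inhibitors at 0.5, 1, 5, 10, 50, 100, 500 and 1000 nM started 24 hours after log-phase tumour cell lines were seeded at 250–500 cells per well in 384-well plates. Luminescence was read after 10 minutes at room temperature. Viability is given as surviving fraction, meaning CellTiter-Glo luminescence normalised to the median of DMSO-only wells.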

VINORELBINE = compound: CCC1=C[C@@H]2CN(C1)Cc1c([nH]c3ccccc13)[C@@](C(=O)OC)(c1cc3c(cc1OC)N(C)[C@H]1[C@@](O)(C(=O)OC)[C@H](OC(C)=O)[C@]4(CC)C=CCN5CC[C@]31[C@@H]54)C2 [VINORELBINE]; assay: as above; conditions: exposure time: 5 days
Procedure, shortened: as §1

Test System | surviving fraction (ERLOTINIB; 0.5 nM) | surviving fraction (ERLOTINIB; 1 nM) | surviving fraction (ERLOTINIB; 5 nM) | surviving fraction (ERLOTINIB; 10 nM) | surviving fraction (ERLOTINIB; 50 nM) | surviving fraction (ERLOTINIB; 100 nM) | surviving fraction (ERLOTINIB; 500 nM) | surviving fraction (ERLOTINIB; 1000 nM) | surviving fraction (VINORELBINE; 0.5 nM) | surviving fraction (VINORELBINE; 1 nM) | surviving fraction (VINORELBINE; 5 nM) | surviving fraction (VINORELBINE; 10 nM) | surviving fraction (VINORELBINE; 50 nM) | surviving fraction (VINORELBINE; 100 nM) | surviving fraction (VINORELBINE; 500 nM) | surviving fraction (VINORELBINE; 1000 nM)
HCC1954 BREAST | 1.05 ± 0.059 | 1.14 ± 0.082 | 1.35 ± 0.075 | 1.35 ± 0.23 | 0.782 ± 0.23 | 0.708 ± 0.23 | 0.527 ± 0.066 | 0.493 ± 0.092 | 1.08 ± 0.15 | 0.9287 ± 0.0046 | 0.576 ± 0.01 | 0.311 ± 0.011 | 0.1412 ± 0.0011 | 0.13 ± 0.00071 | 0.091 ± 0.0021 | 0.144 ± 0.025
HCT15 LARGE INTESTINE | 1.06 ± 0.12 | 1 ± 0.15 | 0.979 ± 0.17 | 0.977 ± 0.078 | 1.1 ± 0.038 | 1.11 ± 0.039 | 1.1 ± 0.044 |  | 1.1 ± 0.066 | 1.06 ± 0.043 | 1.04 ± 0.085 | 0.957 ± 0.058 | 0.99 ± 0.064 | 0.819 ± 0.093 | 0.183 ± 0.026 | 0.106 ± 0.0059
HELA CERVIX | 1.06 ± 0.057 | 1.08 ± 0.045 | 1.04 ± 0.089 | 1.05 ± 0.04 | 1.17 ± 0.054 | 1.18 ± 0.028 | 1.25 ± 0.035 | 1.15 ± 0.021 | 1.05 ± 0.054 | 1.02 ± 0.044 | 1.04 ± 0.015 | 0.778 ± 0.043 | 0.145 ± 0.0031 | 0.0838 ± 0.0042 | 0.0347 ± 0.0015 | 0.0298 ± 0.0028
HMLE3 BREAST | 1.07 ± 0.021 |  | 1.1 ± 0.038 | 1.07 ± 0.026 |  | 1.17 ± 0.077 | 0.976 ± 0.15 | 0.916 ± 0.013 | 0.993 ± 0.017 | 0.965 ± 0.053 | 1.07 ± 0.044 | 0.987 ± 0.013 | 0.125 ± 0.029 | 0.053 ± 0.012 | 0.0317 ± 0.0067 | 0.0373 ± 0.005
HMT3552 BREAST | 1.03 ± 0.024 | 1.04 ± 0.036 | 0.994 ± 0.029 | 1.03 ± 0.02 | 1.02 ± 0.064 | 0.957 ± 0.034 | 0.85 ± 0.08 | 0.808 ± 0.053 | 1.05 | 1.05 | 0.59 | 0.209 | 0.104 | 0.117 | 0.253 | 0.221
HOS BONE | 1.038 ± 0.0011 |  | 1.03 ± 0.028 | 1.03 ± 0.022 |  | 1.05 ± 0.0058 | 1.03 ± 0.038 | 0.98 ± 0.046 | 1.05 ± 0.05 | 1.01 ± 0.011 | 1.05 ± 0.034 | 0.967 ± 0.031 | 0.13 ± 0.012 | 0.0783 ± 0.0015 | 0.03 ± 0.0035 | 0.033 ± 0.0027
HOSMNG BONE |  | 1 ± 0.041 | 0.915 ± 0.044 | 0.947 ± 0.078 | 0.963 ± 0.1 |  | 1.1 ± 0.064 | 0.957 ± 0.044 | 0.938 ± 0.14 | 0.956 ± 0.1 | 0.963 ± 0.11 | 0.955 ± 0.15 | 0.694 ± 0.1 | 0.415 ± 0.028 | 0.112 ± 0.018 | 0.0593 ± 0.01
HS578T BREAST | 1.18 ± 0.052 | 1.4 ± 0.32 | 1.21 ± 0.22 | 1.23 ± 0.063 | 1.33 ± 0.21 | 1.32 ± 0.16 | 1.28 ± 0.23 | 1.18 ± 0.12 | 1.13 ± 0.09 | 0.976 ± 0.17 | 0.423 ± 0.021 | 0.276 ± 0.027 | 0.153 ± 0.019 | 0.138 ± 0.004 | 0.173 ± 0.011 | 0.185 ± 0.014
HSSYII SYNOVIAL | 0.966 ± 0.066 | 1.03 ± 0.036 | 1.02 ± 0.058 | 1.06 ± 0.031 | 1.03 ± 0.062 | 1.01 ± 0.049 | 1.02 ± 0.063 | 1 ± 0.076 | 0.891 ± 0.082 | 0.836 ± 0.032 | 0.308 ± 0.033 | 0.0998 ± 0.006 | 0.0498 ± 0.003 | 0.0455 ± 0.0052 | 0.0458 ± 0.002 | 0.0588 ± 0.0063
HT1080 SOFT TISSUE |  | 1.05 ± 0.032 | 1.06 ± 0.027 | 1.05 ± 0.026 | 1.024 ± 0.004 | 1.02 ± 0.022 | 1.07 ± 0.066 | 1.03 ± 0.077 | 1.02 ± 0.02 | 1.02 ± 0.016 | 0.903 ± 0.018 | 0.503 ± 0.01 | 0.0517 ± 0.0055 | 0.0363 ± 0.00058 | 0.038 ± 0.002 | 0.0363 ± 0.0015
